Test results from US12180523B2, “Southern green stink bug pheromone synthesis enzymes and uses thereof” (VIRGINIA TECH INTELLECTUAL PROPERTIES, INC., priority 2018, dated 2024).
Blank lines part the entries; values can stand above or below the molecule they belong to.

Columns and labels:
[1] = tested on: crude protein extracts from tissue associated with the ventral sternites of N. viridula; experiment: Terpene synthase activity in crude protein extracts of abdominal cuticle tissue; assay type: biochemical; conditions: 50 μM (E,E)-FPP, 12 h, 30° C.
Procedure: Crude Protein Extracts of N. viridula. Abdominal cuticles from one mature (14-15 days post molt) adult male and female N. viridula were used for crude protein assays. Insects were fixed with hexane vapor in a screw top jar and dissected in phosphate buffered saline (PBS) (137 mM NaCl, 8.1 mM Na2HPO4, 1.5 mM NaH2PO4, 2.7 mM KCl, pH 7.2). Head, thorax and abdominal soft tissues were removed except for epithelial cells lining the cuticle. Abdominal cuticles were then frozen in liquid nitrogen, pulverized with a mortar and pestle, and suspended in assay buffer (25 mM HEPES, 5 mM MgCl2, 10% glycerol, 1 mM DTT, pH 7). Protein concentrations were determined with a Bradford Assay (Bio-Rad, Hercules, CA) according to the manufacturer's protocol resulting in a protein concentration of 1.2 μg/μl and 0.8 μg/μl for female and male tissue, respectively.
TPS Activity Assay. To determine terpene synthase activity in crude protein extracts of male and female abdominal cuticle tissue, 50 μM (E,E)-FPP was added to protein extracts in assay buffer (see above) containing 50 µg protein at a final volume of 200 μl and with a 200 μl hexane overlay to collect volatiles. Following incubation for 12 h at 30° C., enzyme products were extracted by mixing for 15 s using a vortex and phases were separated by centrifuging at 4000×g for 10 min. One μl of the hexane extract was analyzed by GC-MS. […]

[2] = molecular target: T1, recombinant NvIDS1 (NvTPS) protein (Nezara viridula, UniProt A0A386JV86); experiment: TPS activity assay of purified recombinant NvTPS, products by GC-MS; assay type: biochemical, N. viridula; conditions: 50 μM allylic substrate, 30° C., 1 h
T1 construct: Full-length NvTPS (NvIDS1) cDNA was cloned into the pEXP5-NT/TOPO (Invitrogen) expression vector; His tag (N-terminal histidine fusion tag from pEXP5-NT/TOPO) (N); made in house; host or cells: E. coli BL21(DE3)pLysS
T1 sequence (A0A386JV86 1-378): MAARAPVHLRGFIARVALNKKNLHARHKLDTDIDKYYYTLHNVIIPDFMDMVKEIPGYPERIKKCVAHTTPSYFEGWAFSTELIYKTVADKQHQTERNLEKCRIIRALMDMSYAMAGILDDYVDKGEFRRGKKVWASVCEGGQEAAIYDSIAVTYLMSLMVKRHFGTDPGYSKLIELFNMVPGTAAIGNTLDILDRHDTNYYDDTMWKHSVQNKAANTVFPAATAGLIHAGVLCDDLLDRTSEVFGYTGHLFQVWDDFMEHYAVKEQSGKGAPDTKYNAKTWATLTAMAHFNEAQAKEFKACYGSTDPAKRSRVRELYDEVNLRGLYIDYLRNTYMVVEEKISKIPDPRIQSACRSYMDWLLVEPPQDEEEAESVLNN
Procedure: Heterologous Expression of Recombinant NvTPS.
TPS activity of purified, recombinant NvTPS protein was determined in assay buffer (see above) with 1 mM DTT and 50 μM allylic substrate [(E,E)-, (Z,E)- or (Z,Z)-FPP] in a total volume of 100 μl and with a100 μl hexane overlay. Upon incubation at 30° C. for 1 h, assays were stopped on ice and compounds extracted by mixing using a vortex at maximum speed for 15 s. Phases were separated by centrifuging at 4000×g for 10 min and the hexane phase was removed and dried over MgSO4. One μL of the hexane extract was analyzed by GC-MS.
Gas Chromatography-Mass Spectrometry Analysis and Determination of Absolute Configuration of NvTPS Products. GC-MS analysis of hexane extracts from assays with crude protein lysates or NvTPS recombinant protein was performed using split injection (5:1 ratio) at an injection temperature of 240° C. Compounds were separated on a GC-2010 gas chromatograph (Shimadzu, Kyoto, Japan) with a 30 m×0.25 mm i.d.×0.25 μm film Zebron ZB-XLB column (Phenomenex, Torrance, CA) coupled to a QP2010S mass spectrometer (Shimadzu). Separation steps were as follows: initial 2 min hold at 40° C., followed by a 5° C./min ramp to 220° C., then a 70° C./min ramp to 240° C. followed by a 2 min hold time at 240° C. Mass spectrometry was performed with a 240° C. ion source temperature, 280° C. interface temperature, electron ionization (El) potential of 70 eV, and scan range of 50 to 400 amu. Helium was used as a carrier gas at 1.9 ml/min.

NvTPS = molecular target: T2, NvTPS (Nezara viridula, UniProt A0A386JV86); experiment: Kinetic analysis of NvTPS with [1-3H]-(E,E)-FPP; assay type: biochemical, N. viridula; conditions: (E,E)-FPP as the substrate
T2 construct: Full-length NvTPS (NvIDS1) cDNA was cloned into the pEXP5-NT/TOPO (Invitrogen) expression vector; His tag (N-terminal histidine fusion tag from pEXP5-NT/TOPO) (N); made in house; host or cells: E. coli BL21(DE3)pLysS
T2 sequence (A0A386JV86 1-378): T1 sequence (A0A386JV86 1-378)
Procedure: To determine the apparent Km value of NvTPS for (E,E)-FPP, […] of recombinant protein was incubated with increasing concentrations of [1-3H]-(E,E)-FPP (64 ρCi mmol-1) in a total volume of […]. Assays were incubated at 30° C. for 5 min prior to extraction of the enzyme product with 250 μl hexane. Assays were performed in triplicate. Quantification of the radioactive product was as described by Tholl et al. (2005. Plant. J. 42:757-771). The Km value was calculated by rectangular hyperbolic regression analysis using Hyperbolic Regression Analysis software (HYPER 1.01) (J. S. Easterby, University of Liverpool).

[3] = tested on: crude protein extract from whole male and female bugs; experiment: Enzyme activity in crude protein extract from whole bugs; assay type: biochemical, N. viridula; conditions: supernatant of homogenized male and female bugs incubated with (E,E)-FPP
Procedure: Enzyme Activity in Crude Protein Assay. Enzyme activity was measured in crude protein extract from whole male and female bugs to determine possible products from enzymes that accept (E,E)-FPP. The supernatant from homogenized bugs was incubated with the substrate and analyzed products extracted by hexane using GC-MS. […] Also, several sesquiterpenes were found in low abundance that were not found in assays of partially purified NvTPS.

[4] = molecular target: recombinant NvIDS2 (NvFPPS) (Nezara viridula, UniProt A0A386JVA3); conditions: 50 μM IPP and 50 μM DMAPP, 30° C., 2 h, LC-MS
recombinant NvIDS2 (NvFPPS), sequence (A0A386JVA3 whole entry): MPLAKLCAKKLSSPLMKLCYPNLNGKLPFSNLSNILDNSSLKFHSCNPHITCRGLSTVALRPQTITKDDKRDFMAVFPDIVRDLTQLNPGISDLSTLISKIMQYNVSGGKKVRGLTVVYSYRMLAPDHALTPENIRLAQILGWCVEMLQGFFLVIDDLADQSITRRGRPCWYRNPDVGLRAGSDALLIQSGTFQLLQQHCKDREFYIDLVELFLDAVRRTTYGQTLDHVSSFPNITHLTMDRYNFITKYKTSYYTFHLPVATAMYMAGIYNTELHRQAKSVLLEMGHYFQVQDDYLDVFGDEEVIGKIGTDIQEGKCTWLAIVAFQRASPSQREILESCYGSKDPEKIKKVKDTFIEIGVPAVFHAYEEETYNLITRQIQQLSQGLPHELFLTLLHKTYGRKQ
Procedure: In preparation for enzyme assays, a buffer exchange to 25 mM 3-(N-morpholino)-2-hydroxypropanesulfonic acid (MOPSO, pH 7.2, 10% [v/v] glycerol, 1 mM DTT, 5 mM MgCl2) was conducted on PD-10 Desalting Columns (GE Healthcare Life Sciences, Pittsburgh, PA).
(§1) IDS Activity Assay and Analysis. […] Upon incubation at 30° C. for 2 h, IDS enzyme products were analyzed on an Agilent 1260 HPLC system (Agilent Technologies) coupled to an API 5000 triple-quadrupole mass spectrometer (AB Sciex Instruments) following the protocol described by Beran et al. 2016.

NvIDS1 (NvTPS) = NvIDS1 (NvTPS) (Nezara viridula, UniProt A0A386JV86); conditions: IPP and DMAPP as substrates
Procedure: Full-length NvTPS (NvIDS1) cDNA was cloned into the pEXP5-NT/TOPO (Invitrogen) expression vector as described above and transformed into E. coli BL21(DE3)pLysS cells. Single colonies were selected at 18° C. on LB with ampicillin (100 μg/ml) and chloramphenicol (34 μg/ml). Expression cultures (200 ml of the same medium) were started from 5 ml overnight cultures and incubated at 18° C. for 4-8h. Following induction at an OD600 of 0.50 with 0.5 mM IPTG, cells were cultivated for another 48 h, then washed in 100 ml wash buffer (20 mM Tris-HCl, 50 mM KCl, pH 7), pelleted, and resuspended in 15 ml cell lysis buffer (50 mM NaH2PO4, 300 mM NaCl, 5 mM imidazole, 0.5 mM PMSF, 2 mM DTT, pH 8). Upon sonication for 2×30 s (on ice, 1 min interval, 20% amplitude, Branson Digital Sonifier), the recombinant protein was purified with Ni-NTA agarose (Qiagen) using three washes of 30 mM imidazole and elution as a 1 ml fraction with 250 mM imidazole. Buffer exchange into TPS assay buffer (25 mM HEPES, 10 mMMgCl2,10% glycerol, pH 7) was performed on PD MiniTrap G-25 desalting columns (GE Healthcare Life Sciences).
as §1

Molecule: CC(C)=CCC/C(C)=C/CC/C(C)=C/COP(=O)(O)OP(=O)(O)O [(E,E)-FPP, (E,E)-farnesyl diphosphate]
- TPS activity in crude protein extract, products by GC-MS ([1]; extracts from mature females): only little activity
- TPS activity in crude protein extract, products by GC-MS ([1]; extracts from mature males): formation of (Z)-α-bisabolene
- enzymatic products of NvIDS1 (TPS activity) [2]: (Z)-α-bisabolene as the main product
- Vmax (NvTPS): 11.83±2.14 pkat/mg
- Km (NvTPS; 30° C., 5 min, triplicate, read-out: apparent Km value): 0.95 ± 0.37 µM
- products in crude protein extract from whole bugs, GC-MS [3]: (Z)-α-bisabolene present in crude protein from males but not females

Molecule: CC(C)=CCC/C(C)=C/CC/C(C)=C\COP(=O)(O)OP(=O)(O)O [(Z,E)-FPP]
- enzymatic products of NvIDS1 (TPS activity) [2]: No enzymatic products were detected

Molecule: CC(C)=CCC/C(C)=C\CC/C(C)=C\COP(=O)(O)OP(=O)(O)O [(Z,Z)-FPP]
- enzymatic products of NvIDS1 (TPS activity) [2]: No enzymatic products were detected

- IDS product of NvIDS2 [4]: (E,E)-FPP as the sole product
- IDS activity of NvIDS1 (NvIDS1 (NvTPS)): no activity was observed
Molecule: isopentenyl diphosphate [IPP]
